Reference: US9302999B2, “Substituted triazoles as herbicides” (E. I. DU PONT DE NEMOURS AND COMPANY, priority 2012, dated 2016)

How the values were obtained:
[1] = tested on: pigweed (Amaranthus retroflexus); assay: Test A pre-/postemergence: pigweed; format: in vivo; conditions: for Pigweed plant response rating: visual rating on 0 to 100 scale (0 no effect, 100 complete control), approximately ten days
How it was run: (§1)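 Injury is scored visually on a scale where 0 means no effect and 100 complete control, comparing treated with untreated plants after approximately ten greenhouse days. Both preemergence and postemergence applications are made at the same time.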

[2] = tested on: wheat (Triticum aestivum); assay: Test A pre-/postemergence: wheat; format: in vivo; conditions: for Wheat plant response rating: visual rating on 0 to 100 scale (0 no effect, 100 complete control), approximately ten days
How it was run: as §1

corn (Zea mays) = assay: Test A pre-/postemergence: corn; format: in vivo; conditions: for Corn plant response rating: visual rating on 0 to 100 scale (0 no effect, 100 complete control), approximately ten days
How it was run: as §1

[3] = tested on: sedge, umbrella (small-flower umbrella sedge Cyperus difformis); assay: Test B flooded paddy: sedge, umbrella; format: in vivo; conditions: Flood; 250 g ai/ha; applied to paddy water at 2-leaf stage; visually evaluated after 13 to 15 days
How it was run: (§2)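 At two leaves, seedlings received the test compound via the paddy water, pots having been flooded 3 cm over the soil surface and kept so. Greenhouse-held for 13 to 15 days, then judged by eye against controls on a scale running 0 (no effect) to 100 (complete control).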

[4] = tested on: ducksalad (Heteranthera limosa); assay: Test B flooded paddy: ducksalad; format: in vivo; conditions: Flood; 250 g ai/ha; applied to paddy water at 2-leaf stage; visually evaluated after 13 to 15 days
How it was run: as §2

[5] = tested on: lambsquarters (Chenopodium album); assay: Test C pre-/postemergence: lambsquarters; format: in vivo
How it was run: (§3)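 Visual injury scored 0–100 (100 = complete control) against untreated controls after 13–15 greenhouse days. Surfactant-containing solvent formulations applied either to soil after sowing (loam/sand) or over 1- to 4-leaf plants, 2–18 cm tall.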

[6] = tested on: morningglory (Ipomoea coccinea); assay: Test C pre-/postemergence: morningglory; format: in vivo
How it was run: as §3

[7] = tested on: ragweed (common ragweed, Ambrosia elation); assay: Test C pre-/postemergence: ragweed; format: in vivo
How it was run: as §3

Oilseed Rape = assay: Test C postemergence: oilseed rape; format: in vivo, Brassica napus; conditions: 125 g ai/ha, scale 0 to 100, 0 no effect, 100 complete control
Source text: Seeds of plant species selected from blackgrass (Alopecurus myosuroides), bromegrass, downy (downy bromegrass, Bromus tectorum), foxtail, green (green foxtail, Setaria viridis), ryegrass, Italian (Italian ryegrass, Lolium multiflorum), winter wheat (Triticum aestivum), wild oat (Avena fatua), galium (catchweed bedstraw, Galium aparine), bermudagrass (Cynodon dactylon), surinam grass (Brachiaria decumbens), cocklebur (common cocklebur, Xanthium strumarium), corn (Zea mays), large crabgrass (Digitaria sanguinalis), woolly cupgrass (Eriochloa villosa), foxtail, giant (giant foxtail, Setaria faberii), goosegrass (Eleusine indica), johnsongrass (Sorghum halepense), kochia (Kochia scoparia), lambsquarters (Chenopodium album), morningglory (Ipomoea coccinea), nightshade (eastern black nightshade, Solanum ptycanthum), nutsedge, yellow (yellow nutsedge, Cyperus esculentus), pigweed (Amaranthus retroflexus), ragweed (common ragweed, Ambrosia elation), soybean (Glycine max), common (oilseed) sunflower (Helianthus annuus), Russian thistle (Salsola kali) and velvetleaf (Abutilon theophrasti) were planted into a blend of loam soil and sand and treated preemergence with test chemicals formulated in a non-phytotoxic solvent mixture which included a surfactant.
At the same time, plants selected from these crop and weed species and also barley (winter barley, Hordeum vulgare), canarygrass (Phalaris minor), chickweed (common chickweed, Stellaria media) windgrass (Apera spica-venti) and deadnettle (henbit deadnettle, Lamium amplexicaule) were planted in pots containing Redi-Earth® planting medium (Scotts Company, 14111 Scottslawn Road, Marysville, Ohio 43041) comprising spaghnum peat moss, vermiculite, wetting agent and starter nutrients and treated with postemergence applications of test chemicals formulated in the same manner. Plants ranged in height from 2 to 18 cm (1- to 4-leaf stage) for postemergence treatments.
Treated plants and controls were maintained in a greenhouse for 13 to 15 days, after which time all species were compared to controls and visually evaluated. Plant response ratings, summarized in Table C, are based on a scale of 0 to 100 where 0 is no effect and 100 is complete control. A dash (-) response means no test result.

[8] = Postemergence, 125 g ai/ha, 0 to 100 scale, 0 is no effect, 100 is complete control
[9] = Preemergence, 125 g ai/ha, 0 to 100 scale where 0 is no effect and 100 is complete control
[10] = Preemergence, 500 g ai/ha, 0 to 100 scale (0 no effect, 100 complete control)
[11] = Postemergence, 31 g ai/ha, scale 0 to 100 (0 no effect, 100 complete control)
[12] = Postemergence, 62 g ai/ha, scale 0 to 100 (0 no effect, 100 complete control)
[13] = Postemergence, 125 g ai/ha, scale 0 to 100, 0 no effect, 100 complete control
[14] = Postemergence, 250 g ai/ha, scale 0 to 100
[15] = Preemergence, 31 g ai/ha, scale of 0 to 100, 0 is no effect, 100 is complete control
[16] = Preemergence, 62 g ai/ha, scale of 0 to 100, 0 is no effect, 100 is complete control
[17] = Preemergence, 125 g ai/ha, scale 0 to 100, 0 no effect, 100 complete control
[18] = Preemergence, 250 g ai/ha, scale 0 to 100, 0 no effect, 100 complete control
[19] = Postemergence, 16 g ai/ha, scale 0 to 100, 0 no effect, 100 complete control
[20] = Preemergence, 16 g ai/ha, scale 0 (no effect) to 100 (complete control)

Structure (SMILES) | Plant response rating, Pigweed [1, 8] | Pigweed plant response rating ([1]; Postemergence, 500 g ai/ha) | Plant response rating, Pigweed [1, 9] | Plant response rating, Pigweed [1, 10] | Plant response rating, Wheat [2, 8] | Wheat plant response rating ([2]; Postemergence, 500 g ai/ha) | Plant response rating, Wheat [2, 9] | Plant response rating, Wheat [2, 10] | Plant response rating, Corn (corn (Zea mays); [8]) | Corn plant response rating (corn (Zea mays); Postemergence, 500 g ai/ha) | Plant response rating, Corn (corn (Zea mays); [9]) | Plant response rating, Corn (corn (Zea mays); [10]) | Plant response rating, Sedge, Umbrella (0 to 100 scale, 0 is no effect, 100 is complete control) [3] | Plant response rating, Ducksalad (0 to 100 scale, 0 is no effect, 100 is complete control) [4] | Plant response rating, Lambsquarters [5, 11] | Plant response rating, Lambsquarters [5, 12] | Plant response rating, Lambsquarters [5, 13] | Plant response rating, Lambsquarters [5, 15] | Plant response rating, Lambsquarters [5, 16] | Plant response rating, Lambsquarters [5, 17] | further results
CCc1nn(-c2ccc(C(F)(F)F)cc2)nc1Cc1ccnc(C(F)(F)F)c1 [Compound 155] | 100 | 100 | 100 | 100 | 40 | 80 | 10 | 70 | 40 | 70 | 60 | 80 | 80 | 80 | 80 | 95 | 98 | 90 | 100 | 100 | Plant response rating, Lambsquarters [5, 14]: 98; Plant response rating, Lambsquarters [5, 18]: 100; Plant response rating, Morningglory [6, 11]: 55; Plant response rating, Morningglory [6, 12]: 65; Plant response rating, Morningglory [6, 13]: 65; Plant response rating, Morningglory [6, 14]: 98; Plant response rating, Morningglory [6, 15]: 10; Plant response rating, Morningglory [6, 16]: 40; Plant response rating, Morningglory [6, 17]: 60; Plant response rating, Morningglory [6, 18]: 90; Plant response rating, Ragweed [7, 11]: 80; Plant response rating, Ragweed [7, 13]: 85; Plant response rating, Ragweed [7, 14]: 85; Plant response rating, Ragweed [7, 15]: 20; Plant response rating, Ragweed [7, 16]: 40; Plant response rating, Ragweed [7, 17]: 85; Plant response rating, Ragweed [7, 18]: 95; Plant response rating, Oilseed Rape (Oilseed Rape): 95
Cc1nn(-c2ccc(F)c(C(F)(F)F)c2)nc1Cc1ccnc(C(F)(F)F)c1 [Compound 156] | 100 | 100 | 100 | 100 | 40 | 60 | 20 | 80 | 40 | 70 | 40 | 70 | 85 | 90 | 98 | 98 | 98 | 100 | 100 | 100 | Plant response rating, Lambsquarters [5, 14]: 98; Plant response rating, Lambsquarters [5, 18]: 100; Plant response rating, Morningglory [6, 11]: 65; Plant response rating, Morningglory [6, 12]: 70; Plant response rating, Morningglory [6, 13]: 75; Plant response rating, Morningglory [6, 14]: 100; Plant response rating, Morningglory [6, 15]: 5; Plant response rating, Morningglory [6, 16]: 10; Plant response rating, Morningglory [6, 17]: 10; Plant response rating, Morningglory [6, 18]: 30; Plant response rating, Ragweed [7, 11]: 75; Plant response rating, Ragweed [7, 12]: 75; Plant response rating, Ragweed [7, 13]: 75; Plant response rating, Ragweed [7, 14]: 80; Plant response rating, Ragweed [7, 15]: 5; Plant response rating, Ragweed [7, 16]: 10; Plant response rating, Ragweed [7, 17]: 30; Plant response rating, Ragweed [7, 18]: 60; Plant response rating, Oilseed Rape (Oilseed Rape): 95
FCc1nn(-c2ccc(F)cc2)nc1Oc1ccnc(C(F)(F)F)c1 [Compound 160] | 100 | 100 | 100 | 100 | 40 | 50 | 30 | 50 | 30 | 60 | 20 | 40 | 85 | 90 | 80 | 95 | 95 | 100 | 100 | 100 | Plant response rating, Lambsquarters [5, 19]: 70; Plant response rating, Lambsquarters [5, 20]: 95; Plant response rating, Morningglory [6, 19]: 60; Plant response rating, Morningglory [6, 11]: 60; Plant response rating, Morningglory [6, 12]: 98; Plant response rating, Morningglory [6, 13]: 98; Plant response rating, Morningglory [6, 20]: 0; Plant response rating, Morningglory [6, 15]: 5; Plant response rating, Morningglory [6, 16]: 15; Plant response rating, Morningglory [6, 17]: 20; Plant response rating, Ragweed [7, 19]: 10; Plant response rating, Ragweed [7, 11]: 10; Plant response rating, Ragweed [7, 12]: 40; Plant response rating, Ragweed [7, 13]: 40; Plant response rating, Ragweed [7, 20]: 0; Plant response rating, Ragweed [7, 15]: 0; Plant response rating, Ragweed [7, 16]: 5; Plant response rating, Ragweed [7, 17]: 5; Plant response rating, Oilseed Rape (Oilseed Rape): 95
